Data published in patent US11155586B2, “Cystine knot scaffold platform” (Genentech, Inc., priority 2015, dated 2021).
Positions of bridges follow the written chain, without caps; N, C: chain ends. Residues, ends and D or L forms follow the SMILES beside them.

Legend:
[1] = target: T1, hVEGF-A (8-109) (Homo sapiens, UniProt P15692); test: SPR binding assay (BIACORE 3000, 37° C.); settings: for effect of F8Y mutation on affinity/potency: SPR affinity (Table 37) and cellular IC50 (Table 38), vs variant without F8Y
T1 sequence (P15692 34-135 isoform P15692-4): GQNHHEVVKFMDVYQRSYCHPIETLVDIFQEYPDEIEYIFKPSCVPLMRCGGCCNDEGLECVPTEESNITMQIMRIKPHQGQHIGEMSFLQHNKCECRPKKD
Procedure: Depending on the format of the assay either a streptavidin sensor (SA) or a dextran-coated (CM5) sensor was utilized as described below.
For use with the SA sensor, VEGF-A was first biotinylated (no more than 2 biotin/VEGF-A) by incubating the protein with EZ-link NHS-PEG4-Biotin (Pierce) in a 1:1.5 molar ratio respectively, in PBS for 2 hours on ice. Reaction was then quenched by addition of 10 molar excess of Glycine pH 8.0 and the sample was buffer exchanged into PBS using an Amicon 0.5 mL 3000 MWCO ultra-centrifugal filters (EMD Millipore). The biotinylation state of the protein was verified by LC-MS analysis. Biotinylated VEGF-A was then captured on the surface until a resonance unit (RU) signal of about ˜400. For immobilization of VEGF-A on CM5 sensor, the surface was first activated with a mixture of N-ethyl-N′-(3-dimethylaminopropyl)carbodiimide hydrochloride and N-hydroxysuccinimide (EDC/NHS) according to the supplier instructions. VEGF-A was then diluted into coupling buffer (0.1 M Acetate Buffer, pH 5.0) and injected until the signal reached about ˜400 RU followed by a wash with 1 M ethanolamine pH 8.0 to quench remaining activated sites.
Following the capture step, a series of the peptide concentrations were prepared in HBS-EP buffer with matching DMSO concentrations to 0.1% and injected at a flow rate of […]. The resulting sensorgrams were then analyzed using a 1:1 binding model to obtain kinetic data and affinities using Scrubber 2.0 (BioLogic Software).

[2] = target: T2, hVEGF(8-109) (Homo sapiens, UniProt P15692); test: Spot phage ELISA; assay type: binding
T2 construct: hVEGF(8-109) or BSA were coated on 384-well MAXISORP™ immunoplates
T2 sequence (P15692 214-315): T1 sequence (P15692 34-135 isoform P15692-4)
Summary of the method: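 Clones counted positive when hVEGF(8-109) signal exceeded BSA background by over 3-fold, per spot ELISA using anti-M13-HRP/TMB detection. Phage came from overnight 37° C. cultures of individual clones picked after four binding rounds, supernatant diluted 1:3.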

[3] = Table 37, surface plasmon resonance, VEGF-A
[4] = loop 2 variants based on VEGF_CKP9.63 framework, Table 27

Row | SMILES | kd [1, 3] | S/N (signal to noise ratio as compared to BSA control) ([2]; Table 26) | ELISA ([2]; loop 2 variants based on 9.54 framework, Table 26) | kd ([1]; hVEGF-A (8-109), Table 29) | S/N (signal to noise ratio as compared to BSA control) ([2]; Table 27) | ELISA [2, 4] | effect of F8Y mutation on affinity/potency [1]
1 | CC[C@H](C)[C@@H]1NC(=O)[C@H](CC(N)=O)NC(=O)[C@@H](NC(=O)CN)CSSC[C@@H](C(=O)N[C@H](C(=O)N[C@H]2CSSC[C@@H](C(=O)NCC(=O)O)NC(=O)[C@H](CO)NC(=O)[C@H](CCC(N)=O)NC(=O)[C@H](Cc3ccc(O)cc3)NC(=O)[C@H](Cc3ccc(O)cc3)NC(=O)[C@H](CCC(N)=O)NC2=O)C(C)C)NC(=O)CNC(=O)[C@H](C)NC(=O)[C@H](CC(C)C)NC(=O)[C@@H]2CSSC[C@H](NC(=O)CNC(=O)[C@H](Cc3c[nH]c4ccccc34)NC(=O)[C@H](Cc3ccccc3)NC(=O)[C@@H]3CCCN3C(=O)[C@H](CC(C)C)NC(=O)[C@H](CCSC)NC1=O)C(=O)NCC(=O)N[C@@H](CCC(N)=O)C(=O)N[C@@H](CO)C(=O)N[C@@H](Cc1ccccc1)C(=O)N[C@@H](CCC(=O)O)C(=O)N2 [VEGF_CKP9.54.1] (H-GCNIMLPFWGCGQSFECLAGCVCQYYQSCG-OH; disulfide 2-21, 11-17, 23-29 (inferred); N-terminus and C-terminus assumed) | 0.36 | 29.9 | 2.4 |  |  |  | 
2 | CSCC[C@@H]1NC(=O)[C@H](C(C)C)NC(=O)[C@H](CC(=O)O)NC(=O)[C@@H](NC(=O)CN)CSSC[C@@H](C(=O)N[C@H](C(=O)N[C@H]2CSSC[C@@H](C(=O)NCC(=O)O)NC(=O)[C@H](CO)NC(=O)[C@H](CC(N)=O)NC(=O)[C@H](Cc3ccc(O)cc3)NC(=O)[C@H](Cc3c[nH]c4ccccc34)NC(=O)[C@H](Cc3c[nH]cn3)NC2=O)C(C)C)NC(=O)CNC(=O)[C@H](C)NC(=O)[C@H](CC(C)C)NC(=O)[C@@H]2CSSC[C@H](NC(=O)CNC(=O)[C@H](Cc3c[nH]c4ccccc34)NC(=O)[C@H](Cc3ccc(O)cc3)NC(=O)[C@@H]3CCCN3C(=O)[C@H](CCC(N)=O)NC1=O)C(=O)NCC(=O)N[C@@H](CCC(=O)O)C(=O)N[C@@H](CO)C(=O)N[C@@H](CC(C)C)C(=O)N[C@@H](CO)C(=O)N2 [VEGF_CKP9.63.69] (H-GCDVMQPYWGCGESLSCLAGCVCHWYNSCG-OH; disulfide 2-21, 11-17, 23-29 (inferred); N-terminus and C-terminus assumed) |  |  |  | 0.20 | 23.7 | 2.9 | 
3 | CSCC[C@@H]1NC(=O)[C@H](CC(=O)O)NC(=O)[C@H](CCCNC(=N)N)NC(=O)CNC(=O)[C@@H]2CSSC[C@H](NC(=O)[C@H](CC(=O)O)NC1=O)C(=O)N[C@@H](CC(C)C)C(=O)N[C@@H](C)C(=O)NCC(=O)N[C@H](C(=O)N[C@H](C(=O)N[C@H]1CSSC[C@@H](C(=O)NCC(=O)O)NC(=O)[C@H](CO)NC(=O)[C@H](CC(N)=O)NC(=O)[C@H](Cc3ccc(O)cc3)NC(=O)[C@H](Cc3c[nH]c4ccccc34)NC(=O)[C@H](Cc3c[nH]cn3)NC1=O)C(C)C)CSSC[C@H](NC(=O)CN)C(=O)N[C@@H](CC(=O)O)C(=O)N[C@@H](C(C)C)C(=O)N[C@@H](CCSC)C(=O)N[C@@H](CCC(N)=O)C(=O)N1CCC[C@H]1C(=O)N[C@@H](Cc1ccc(O)cc1)C(=O)N[C@@H](Cc1c[nH]c3ccccc13)C(=O)NCC(=O)N2 [VEGF_CKP9.63.27] (H-GCDVMQPYWGCGRDMDCLAGCVCHWYNSCG-OH; disulfide 2-21, 11-17, 23-29 (inferred); N-terminus and C-terminus assumed) |  |  |  | 0.15 | 26.0 | 2.1 | 
4 | CC[C@H](C)[C@@H]1NC(=O)[C@H](CC(N)=O)NC(=O)[C@@H](NC(=O)CN)CSSC[C@@H](C(=O)N[C@H](C(=O)N[C@H]2CSSC[C@@H](C(=O)NCC(=O)O)NC(=O)[C@H](CO)NC(=O)[C@H](CCC(N)=O)NC(=O)[C@H](Cc3ccc(O)cc3)NC(=O)[C@H](Cc3ccc(O)cc3)NC(=O)[C@H](CCC(N)=O)NC2=O)C(C)C)NC(=O)CNC(=O)[C@H](C)NC(=O)[C@H](CC(C)C)NC(=O)[C@@H]2CSSC[C@H](NC(=O)CNC(=O)[C@H](Cc3c[nH]c4ccccc34)NC(=O)[C@H](Cc3ccc(O)cc3)NC(=O)[C@@H]3CCCN3C(=O)[C@H](CC(C)C)NC(=O)[C@H](CCSC)NC1=O)C(=O)NCC(=O)N[C@@H](CCC(N)=O)C(=O)N[C@@H](CO)C(=O)N[C@@H](Cc1ccccc1)C(=O)N[C@@H](CCC(=O)O)C(=O)N2 [VEGF_CKP9.54.1.F8Y] (H-GCNIMLPYWGCGQSFECLAGCVCQYYQSCG-OH; disulfide 2-21, 11-17, 23-29 (inferred); N-terminus and C-terminus assumed) | 0.38 |  |  |  |  |  | modest improvement
5 | CSCC[C@@H]1NC(=O)[C@H](C(C)C)NC(=O)[C@H](CC(=O)O)NC(=O)[C@@H](NC(=O)CN)CSSC[C@@H](C(=O)N[C@H](C(=O)N[C@H]2CSSC[C@@H](C(=O)NCC(=O)O)NC(=O)[C@H](CO)NC(=O)[C@H](CC(N)=O)NC(=O)[C@H](Cc3ccc(O)cc3)NC(=O)[C@H](Cc3c[nH]c4ccccc34)NC(=O)[C@H](Cc3c[nH]cn3)NC2=O)C(C)C)NC(=O)CNC(=O)[C@H](C)NC(=O)[C@H](CC(C)C)NC(=O)[C@@H]2CSSC[C@H](NC(=O)CNC(=O)[C@H](Cc3c[nH]c4ccccc34)NC(=O)[C@H](Cc3ccc(O)cc3)NC(=O)[C@@H]3CCCN3C(=O)[C@H](CCC(N)=O)NC1=O)C(=O)NCC(=O)N[C@@H](CCC(=O)O)C(=O)N[C@@H](CC(N)=O)C(=O)N[C@@H](Cc1ccccc1)C(=O)N[C@@H](CC(C)C)C(=O)N2 [VEGF_CKP9.63.1] (H-GCDVMQPYWGCGENFLCLAGCVCHWYNSCG-OH; disulfide 2-21, 11-17, 23-29 (inferred); N-terminus and C-terminus assumed) |  |  |  | 0.37 | 25.2 | 2.0 | 
6 | CC[C@H](C)[C@@H]1NC(=O)[C@H](CC(N)=O)NC(=O)[C@@H](NC(=O)CN)CSSC[C@@H](C(=O)N[C@H](C(=O)N[C@H]2CSSC[C@@H](C(=O)NCC(=O)O)NC(=O)[C@H](CO)NC(=O)[C@H](CCC(N)=O)NC(=O)[C@H](Cc3ccc(O)cc3)NC(=O)[C@H](Cc3ccc(O)cc3)NC(=O)[C@H](CCC(N)=O)NC2=O)C(C)C)NC(=O)CNC(=O)[C@H](C)NC(=O)[C@H](CC(C)C)NC(=O)[C@@H]2CSSC[C@H](NC(=O)CNC(=O)[C@H](Cc3c[nH]c4ccccc34)NC(=O)[C@H](Cc3ccc(O)cc3)NC(=O)[C@@H]3CCCN3C(=O)[C@H](CC(C)C)NC(=O)[C@H](CCSC)NC1=O)C(=O)NCC(=O)N[C@@H](CCCNC(=N)N)C(=O)N[C@@H](CC(=O)O)C(=O)N[C@@H](Cc1ccccc1)C(=O)N[C@@H](CCC(=O)O)C(=O)N2 [VEGF_CKP9.54.90.F8Y] (H-GCNIMLPYWGCGRDFECLAGCVCQYYQSCG-OH; disulfide 2-21, 11-17, 23-29 (inferred); N-terminus and C-terminus assumed) | 0.27 |  |  |  |  |  | modest improvement
